Earlier results as cited in US20260131008A1, “HYALURONIC ACID BASED DRUG DELIVERY SYSTEMS” (priority 2023, published 2026).

Conditions: in vivo

- vitreal half-life: weeks
- vitreal half-life, shortest estimates: 48 h
Substance: hyaluronic acid [Uncrosslinked HA]
